Experimental data as given in ChEMBL document CHEMBL1201862, “PubChem BioAssay data set” (2004).
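Protocol summary: plate cells (96-well), add compound at 5 concentrations, incubate 48 h, interpolate endpoints linearly. GI50 is the concentration that inhibits growth by half.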 Active and inactive are the calls of the source. Rule as the data show it: active = GI50 up to about 1.1 µM and inactive = higher.

Experiments:
Experiment in all cases: growth of human tumour cells (NCI), 48 h
LXFL 529 = test system: LXFL 529
SNB-78 = test system: SNB-78
DMS-114 = test system: DMS-114
DLD-1 = test system: DLD-1
DMS-273 = test system: DMS-273
KM-20L2 = test system: KM-20L2
HOP-18 = test system: HOP-18
RXF 631 = test system: RXF 631
XF498 = test system: XF498

SMILES	GI50 (LXFL 529)	GI50 (SNB-78)	GI50 (DMS-114)	GI50 (DLD-1)	GI50 (DMS-273)	GI50 (KM-20L2)	GI50 (HOP-18)	GI50 (RXF 631)	GI50 (XF498)
CCCC12Cc3c(OC)ccc(OC)c3CC(Cc3c(OC)ccc(OC)c31)C2=O (stereo not given)	10.2 µM (inactive)	> 100 µM (inactive)	34.8 µM (inactive)	> 100 µM (inactive)	> 100 µM (inactive)				
COC1(OC)C2(Cl)C(Cl)=C(Cl)C1(Cl)C1C2C2CC1(C(=O)O)c1ccccc12 (stereo not given)	14.6 µM (inactive)		17.5 µM (inactive)	17.8 µM (inactive)	19 µM (inactive)	24.2 µM (inactive)	41.2 µM (inactive)	22.4 µM (inactive)	
CCCCc1c2c(nc3c1CCc1cc4cc5c(nc4nc1-3)-c1nc3c(c(CCCC)c1CC5)CCCC3)CCCC2	18 µM (inactive)	> 100 µM (inactive)	26.8 µM (inactive)	59.8 µM (inactive)	42.2 µM (inactive)	22.8 µM (inactive)			
Brc1ccccc2cc(-c3ccccc3)nc1-2	1.73 µM (inactive)	2.85 µM (inactive)	2.16 µM (inactive)	1.94 µM (inactive)	4.35 µM (inactive)	1.71 µM (inactive)	3.78 µM (inactive)	11.9 µM (inactive)	1.98 µM (inactive)
COc1cc(Nc2nc3ccc(C(F)(F)F)cc3nc2-c2ccccc2)cc(OC)c1OC	23.1 µM (inactive)	> 100 µM (inactive)		6.73 µM (inactive)	12 µM (inactive)	5.85 µM (inactive)	< 0.01 µM (active)		
C=C1c2[nH]c3c([N+](=O)[O-])c(OC)ccc3c2CCN1C(C)=O	> 100 µM (inactive)	> 100 µM (inactive)	> 100 µM (inactive)	22.1 µM (inactive)	> 100 µM (inactive)	> 100 µM (inactive)			
CC1(C)CC(Nc2ccc(Nc3ccccc3)cc2)CC(C)(C)N1	25.1 µM (inactive)	66.2 µM (inactive)	21.2 µM (inactive)	70.5 µM (inactive)	41.7 µM (inactive)	26.1 µM (inactive)	> 100 µM (inactive)	18.6 µM (inactive)	22.5 µM (inactive)
CC(C)CC(=O)NS(=O)(=O)c1ccccc1	> 100 µM (inactive)	> 100 µM (inactive)	> 100 µM (inactive)	> 100 µM (inactive)		> 100 µM (inactive)	> 100 µM (inactive)	> 100 µM (inactive)	> 100 µM (inactive)
COc1ccc(C2=NN(C(=O)COc3ccc(Cl)cc3)C(O)(c3ccc(Cl)cc3)C2)cc1 (stereo not given)	> 100 µM (inactive)	66.5 µM (inactive)		> 100 µM (inactive)	> 100 µM (inactive)	> 100 µM (inactive)		> 100 µM (inactive)	> 100 µM (inactive)
O=C1C(c2cnc3ccccc3n2)=C(O)c2ccccc21	> 100 µM (inactive)	> 100 µM (inactive)	> 100 µM (inactive)		0.281 µM (active)	> 100 µM (inactive)		> 100 µM (inactive)	
COc1ccc(/C=N/Nc2nc(-c3cc4oc(=O)n(C)c4cc3Cl)cs2)cc1OC	15.3 µM (inactive)	37.2 µM (inactive)	5.87 µM (inactive)	10.7 µM (inactive)	11.9 µM (inactive)	15.7 µM (inactive)	> 100 µM (inactive)	21 µM (inactive)	10.7 µM (inactive)
COc1ccc2c(c1OC)C1=C(C2=O)c2cc3c(cc2CCN1)OCO3	33.1 µM (inactive)	89.7 µM (inactive)	22.6 µM (inactive)	42.4 µM (inactive)	24.2 µM (inactive)	17.9 µM (inactive)	52.5 µM (inactive)		40.3 µM (inactive)
Cc1ccc(S(=O)(=O)N/N=C(/CC(=O)c2c(C)[n+]([O-])c3ccccc3[n+]2[O-])C(=O)Nc2ccccc2C)cc1	> 100 µM (inactive)	> 100 µM (inactive)	> 100 µM (inactive)	> 100 µM (inactive)	> 100 µM (inactive)	> 100 µM (inactive)	> 100 µM (inactive)		
N=C(N)NCCCC(Nc1c2ccccc2nc2ccccc12)C(=O)O (stereo not given)	> 100 µM (inactive)			> 100 µM (inactive)	> 100 µM (inactive)	> 100 µM (inactive)		75.3 µM (inactive)	
CCOc1cc[n+]([C-](C#N)C#N)cc1	> 100 µM (inactive)	> 100 µM (inactive)	> 100 µM (inactive)	> 100 µM (inactive)	> 100 µM (inactive)	> 100 µM (inactive)		> 100 µM (inactive)	> 100 µM (inactive)
O=C1Cc2c([nH]c3ccccc23)-c2ccccc2N1 [PAULLONE]	19.1 µM (inactive)	> 100 µM (inactive)		33.3 µM (inactive)	31.1 µM (inactive)	21.4 µM (inactive)	> 100 µM (inactive)		31.6 µM (inactive)
O=C(NNc1ccccc1)/C(=C/c1ccc2c(c1)OCO2)NC(=O)c1ccccc1	> 100 µM (inactive)	> 100 µM (inactive)		> 100 µM (inactive)	> 100 µM (inactive)	> 100 µM (inactive)	> 100 µM (inactive)		> 100 µM (inactive)
O=C(Cc1ccccc1)NN1C(=O)C(Cl)C1c1cccc([N+](=O)[O-])c1 (stereo not given)	14.2 µM (inactive)	> 71.8 µM (inactive)	28.5 µM (inactive)	37.9 µM (inactive)	36.5 µM (inactive)	> 83.4 µM (inactive)	31.3 µM (inactive)		31.2 µM (inactive)
Cc1cccc2c1NC(c1c(C)[nH]c3ccccc13)C2 (stereo not given)	> 100 µM (inactive)		56.1 µM (inactive)	> 100 µM (inactive)		> 100 µM (inactive)	> 100 µM (inactive)	> 100 µM (inactive)	51.9 µM (inactive)
CC(C)(C)C(=O)CC(=O)C(C)(C)C.CC(C)(C)C(=O)CC(=O)C(C)(C)C.[SiH4]	1.56 µM (inactive)		0.566 µM (active)	0.436 µM (active)	0.446 µM (active)	1.62 µM (inactive)	2.36 µM (inactive)		0.519 µM (active)
Cc1ccc(N(C(=O)CC(=O)N2N=C(c3ccccc3)C(/N=N/c3ccc([N+](=O)[O-])cc3)C2=O)C(=O)c2ccc(Cl)cc2)cc1 (stereo not given)	15.5 µM (inactive)	6.95 µM (inactive)	20 µM (inactive)	21.2 µM (inactive)	5.94 µM (inactive)	23.3 µM (inactive)	27.4 µM (inactive)		21.8 µM (inactive)
